Measured values reported in US8147837B2, “Use of mycobacterial mannosylated lipoglycans peptide mimotopes for treating inflammation” (priority 2004, dated 2012).
Ends that are not written are not given here.

Legend:
[1] = system: IgG antibodies in sera of Mtb-infected mice; type: binding, BALB/c mice
[2] = system: macrophage cell line RAW 264.7; test: FITC-labeled peptide binding to RAW 264.7 (confocal microscopy, FACS); type: cell-based, murine
Method: B11 peptide (50 μg) was conjugated to FITC (Biotium, Hayward, Calif.) as described by Sethi et al., [Sethi, K. K., et al. Cell Motil Cytoskeleton 52:231-241 (2002)]. For confocal microscopy, RAW 264.7 cells were grown in 8-well glass slides, Chamber Slide™ (Nunc), as described above. Cells were washed three times in cold PBS and incubated with the FITC-labeled mimotope for 5 min at 4° C. in serial dilutions of 1:2-1:100 in cold PBS. Slides were imaged immediately with a Zeiss 410 confocal laser scanning microscope.
(§1) RAW 264.7 cells were grown in a 250-ml flask, washed 3 times in cold PBS, and harvested, THP-1 cells were grown to 10^6/ml in 250-ml flask, centrifuged at 3000 rpm for 10 min, then washed 3 times in cold PBS. Cells were then incubated for 15 min at 37° C., with the FITC-labeled peptide diluted 1:50, then washed 3 times in cold PBS. The fluorescence levels of 10,000 cell counts were determined by FACS (Becton Dickinson, Franklin Lakes, N.J.) and analyzed by CELLQuest™ software. Assay of competitive binding between D-mannose and the FITC-labeled B11 peptide was performed according to Nguyen and Hildreth [Nguyen, D. G., and Hildreth, J. E. Eur J Immunol 33:483-493 (2003)].

[3] = system: THP-1 human monocyte cell line; test: FITC-labeled peptide binding to THP-1 (FACS); type: cell-based
Method: as §1

allergic peritonitis = test: OVA induced allergic peritonitis model; type: in vivo, BALB/c mice
Method: For induction of allergic peritonitis, female BALB/c mice, 5-6 weeks old, were sensitized twice on days 1 and 7 by subcutaneous (s.c.) injection of 0.4 ml of a 0.9% solution of NaCl containing 100 μg ovalbumin (OVA) adsorbed on 1.6 mg Al(OH)3 (all Sigma) the mice received a second dose of the same s.c. injection. On day 11 Peritonitis was induced by the intraperitoneal (i.p.) injection of 0.4 ml of a solution containing 5 μg/ml OVA diluted in saline [Temkin V. et al., Cytokine. 24:74-80. (2003)]. Negative control group were sensitized with saline. On day 12 mice were sacrificed (24 h after challenge (peritonitis induction)), and the peritoneal cavity was washed with 5 ml of Tyrode buffer (3 mmol/L potassium chloride, 10 mmol/L sodium hydrogen carbonate, 20 mmol/L sodium chloride, 0.36 mmol/L sodium phosphate, 0.1% glucose (all Sigma)) containing 0.1% gelatin (TG buffer). Peritoneal lavage fluid was centrifuged (5 minutes, 150 g), supernatants were saved for cytokine ELISA, and cell pellets were re-suspended in 2 ml of TG buffer for eosinophil quantification. Cells were stained for 30 min. with Phycoerytrin (PE)-labeled anti-CCR3Ab (0.625 μg/ml; R&D systems, Abingdon, UK) and eosinophils were defined as cells expressing the eotaxin receptor CCR3 [Grimaldi et al., J Leukoc Biol. 65:846-53. (1999)] by FACS analysis.
Mice treated with B11 peptide were treated i.p. with 200 μg/mouse 1 hour before sensitizations (Group-S), 1 hour before challenge (Group-C), and 1 hour before both sensitizations and challenge (Group-S+C).
(§2) Cytokine levels in mouse sera, cell supernatants, peritoneum lavage, and BALF were assessed by ELISA tests using commercial pairs of antibodies and recombinant cytokines for TNFα IFN-γ, IL-10 and IL-4 (Pharmingen International, Oxford, UK), and IL-12 (Biosource International, Camarillo, Calif.) according to the manufacturer's instructions. The ranges of the sensitivities of the ELISA for the murine cytokines were 15-200 pg/ml for TNF-α, IFN-γ, IL-10, and IL-4, and 15-500 pg/ml for IL-12.

[4] = system: serum antibodies of TB patients; test: ELISA of human TB patients' sera on ManLAM or B11 coated plates; type: binding
From the text: Marchal (Pasteur Institute, Paris).

LPS-induced symptoms [5] = test: LPS mice model; type: in vivo, BALB/c mice; settings: B11 post-treatment, LPS 150 μg i.p.
[6] = system: CS40 anti-ManLAM monoclonal antibody; test: ELISA competition vs. ManLAM for CS40 mAb; type: binding; settings: 50 μg/ml of peptide
Method: ELISA competition assay was performed as described [Kaur, D., et al. Microbiology 148:3049-3057 (2002)]. Briefly, plates were coated with 0.5 μg/well ManLAM. Plates were blocked as described above. The CS40 mAb (diluted 1:2000) was mixed with various concentrations of either phage particles in TBS/1% BSA (0-1×10^18 particles/well) or peptides in PBS/1% BSA (0-200 μg/well). […] After washing (PBS), the ELISA procedure was performed as described above. Samples were all tested in triplicate.

RAW 264.7 cell line = test: Apoptosis of RAW 264.7 cells; type: cell-based, murine
allergic asthma = test: OVA induced allergic asthma model; type: in vivo, mice
Method: For the induction of allergic asthma, mice were sensitized with OVA (Grade V, Sigma) adsorbed to Al(OH)3 gel (Aldrich Chemical Company, Milwaukee, Wis.), using 8 mg OVA/2 ml gel/0.5 ml H2O, pH 7.0-7.5, given intraperitoneally on days 0 and 14. On days 24 and 27 mice were challenged (induction of allergic asthma) with OVA i.n. Negative control group were sensitized with saline. The sensitization and challenge protocol used is an adaptation of a reported procedure [Blyth D. et al., Am. J. Respir. Cell Mol. Biol., 14: 425-438. (1996)].
Twenty-four hours after the second challenge mice were sacrificed. Bronchoalveolar lavage (BAL) was performed with PBS. Eosinophils in Bronchoalveolar lavage fluid (BALF) were detected as described above. Cytokine ELISA was performed to determine cytokine levels in BALF.
Mice treated with B11 peptide were treated with 200 μg/mouse 2 days before sensitizations (Group-S i.p.), 2 days before challenges i.p. (Group-C i.p.), or 1 hour before challenge i.n. (Group-C i.n.) and 2 days both before sensitization and challenge (Group-S+C i.p.).
Lung were excised and examined histologically and photographed after staining with haematoxylin and eosin.
as §2

CS40 mAb = test: Direct peptide ELISA with CS40 mAb; type: binding
[7] = system: RAW 264.7 macrophage cell line; test: Cytokine secretion in RAW 264.7 cells (cytokine ELISA); type: cell-based, murine
primary spleen cells = test: Proliferation of primary spleen cells; type: cell-based, BALB/c mice
TNBS induced colitis = test: TNBS induced colitis; type: in vivo, C57BL/6 mice
Method: In Specific pathogen-free male 4 month old C57BL/6 mice lightly anesthetized a 3.5F catheter was carefully inserted into the colon (4 cm proximal to the anus) administering 0.5 mg of the hapten reagent TNBS (Sigma) in 50% ethanol into the lumen of the colon at days 1 and 5. Animals were then kept in a vertical position for […] and returned to their cages. The mice were monitored for weight loss, behavior, appearance and diarrhea for 11 days. On day 11 mice were sacrificed and tested from macroscopic inflammation symptoms in the spleen, liver and colon [Neurath M. et al., J Exp Med. 182:1281-90. (1995)].
Mice treated with B11 peptide were treated i.p. with 200 μg/mouse on days 1 and 5.

LPS-induced symptoms [8] = test: LPS mice model; type: in vivo, BALB/c mice
Method: Female BALB/c mice, 6-7 weeks old were injected i.p. with 150 μg LPS (Sigma) per mouse.
Treatment with peptide was performed four days before LPS injection, (i.p. 200 μg peptide per mouse).

[9] = Groups S, C and S+C vs Group OVA, 200 μg i.p.

## CISLTEWSMWYRH [B11 peptide with an additional cysteine residue at the amino terminus]
[1]; peptide with extra cysteine at amino terminus
  binding properties to ManLAM-binding antibodies: maintained binding properties

## FITC-conjugated B11 peptide: B11 peptide conjugated to FITC (ISLTEWSMWYRH; also: FITC conjugated)
[2]; FACS, 0.125 M D-mannose
  binding to macrophages in presence of D-mannose: inhibited by D-mannose
[2]; confocal microscopy and FACS
  binding to RAW 264.7: bound the macrophage cell line RAW 264.7
[3]; 0.125 M D-mannose
  binding to THP-1 in presence of D-mannose: inhibited by D-mannose

## ISLTEWSMWYRH (random phage display library) [B11 peptide]
Allergic peritonitis; 200 μg one hour before challenge with OVA
  eosonophil levels in peritoneum lavage: as in the control group
Allergic peritonitis; [9]
  IFN-γ levels in peritoneum lavage: significantly lower
  IL-10 levels in peritoneum lavage: significantly lower
  IL-12 levels in peritoneum lavage: significantly lower
[4]; BCG-vaccinated vs TB patients
  anti-peptide antibody titers in BCG-vaccinated individuals: significantly lower than in TB patients
[4]; TB patients vs healthy individuals
  titers of antigen-binding antibodies in sera of TB patients: Significantly higher titers
[3]
  binding to THP-1: Binds
LPS-induced symptoms [5]
  LPS-induced effects: successfully reduced the LPS-induced effects
[1]
  IgG Abs in sera binding the coated antigen: significantly higher than those of the naive mice
[6]
  decrease in OD in competitive ELISA: 100%
RAW 264.7 cell line; LPS-IFN-γ-activated RAW 264.7
  inhibition of apoptosis: 30%
RAW 264.7 cell line; non-activated RAW 264.7
  induction of apoptosis: did not induce apoptosis
Allergic asthma; S i.p., C i.p., S+C i.p. and C i.n. vs OVA mice, 200 μg, FACS
  eosonophil levels in BALF: significantly lower
Allergic asthma; all mice treated i.p.
  IL-12 in BALF: significantly lower
Allergic asthma; i.n. before challenge, i.p. both before sensitization and challenge
  IL-10 in BALF: significantly lower
Allergic asthma; i.p. and i.n. before challenge
  TNF-α in BALF: significantly lower
Allergic asthma; i.p. and i.n. before challenge, i.p. both before sensitization and challenge
  IL-4 in BALF: significantly lower
Allergic asthma; treated i.p. before sensitizations or before challenges
  inflammation in lung histology: no inflammation was observed
CS40 mAb
  binding to CS40 mAb by direct ELISA: bound the CS40 mAb
[7]; LPS-IFN-γ-activated RAW 264.7
  inhibition of IL-12 secretion: 20%
[7]; non-activated RAW 264.7
  production of IL-12: not induced
[7]; non-activated RAW 264.7, data not shown
  production of IL-6: not induced
Primary spleen cells; spleen cells of Mtb infected mice
  inhibition of proliferation: 40-50%
Primary spleen cells; spleen cells of adjuvant stimulated mice
  inhibition of proliferation: 40-50%
Primary spleen cells; spleen cells of naive mice
  inhibition of proliferation: 40-50%
TNBS induced colitis; all 11 days of experiment, all treated mice
  appearance, behavior, diarrhea, weight loss: normal appearance and behavior, and no diarrhea or weight loss
TNBS induced colitis; day 11
  colons normal in color and thickness: 50%
  colons with lesions: None
  macroscopic inflammation symptoms of colon, spleen and liver: reduced
  treated mice with spleen and liver normal in size and colorization: 75%
TNBS induced colitis; i.p. 200 μg at days 1 and 5
  colitis symptoms: reduced the colitis symptoms
LPS-induced symptoms [8]; 1 hr post LPS injection
  State after LPS-B11 pre-treatment: healthy
LPS-induced symptoms [8]; 20 hr post LPS injection
  State after LPS-B11 pre-treatment: Healthy
LPS-induced symptoms [8]; 48 hr post LPS injection
  State after LPS-B11 pre-treatment: Healthy
LPS-induced symptoms [8]; pre-treated i.p. 200 μg 4 days before LPS
  LPS symptoms (appearance, behavior, curing rate): milder LPS symptoms
